Measured values from ChEMBL document CHEMBL1201862, “PubChem BioAssay data set” (2004).
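48-hour exposure; five concentrations; linearly interpolated endpoints. GI50 = concentration required for 50% inhibition of growth.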 Active and inactive are the calls of the source. Rule as the data show it: active = GI50 up to about 1.1 µM and inactive = higher.

Tests used:
Test in all cases: NCI tumour cell line growth inhibition, 48 h
HT-29 = tested on: HT-29
LXFL 529 = tested on: LXFL 529
DMS-273 = tested on: DMS-273
NCI-H522 = tested on: NCI-H522
COLO 205 = tested on: COLO 205
SK-OV-3 = tested on: SK-OV-3
HOP-18 = tested on: HOP-18
SN12C = tested on: SN12C
HCT-15 = tested on: HCT-15
KM12 = tested on: KM12
RXF 393 = tested on: RXF 393
TK-10 = tested on: TK-10
SF-539 = tested on: SF-539
HL-60 = tested on: HL-60
RPMI-8226 = tested on: RPMI-8226
LOX IMVI = tested on: LOX IMVI
A498 = tested on: A498
786-0 = tested on: 786-0
IGROV-1 = tested on: IGROV-1
U-251 = tested on: U-251
DMS-114 = tested on: DMS-114
DLD-1 = tested on: DLD-1
SK-MEL-28 = tested on: SK-MEL-28
UO-31 = tested on: UO-31
M19-MEL = tested on: M19-MEL
SW-620 = tested on: SW-620
HOP-92 = tested on: HOP-92
K562 = tested on: K562
OVCAR-8 = tested on: OVCAR-8
UACC-62 = tested on: UACC-62
HCC 2998 = tested on: HCC 2998
OVCAR-3 = tested on: OVCAR-3
ACHN = tested on: ACHN
MOLT-4 = tested on: MOLT-4
OVCAR-5 = tested on: OVCAR-5
KM-20L2 = tested on: KM-20L2
Malme-3M = tested on: Malme-3M
SR = tested on: SR
SK-MEL-2 = tested on: SK-MEL-2
M14 = tested on: M14
OVCAR-4 = tested on: OVCAR-4
A549 = tested on: A549
HCT-116 = tested on: HCT-116
SNB-75 = tested on: SNB-75
SK-MEL-5 = tested on: SK-MEL-5
HOP-62 = tested on: HOP-62
SF-268 = tested on: SF-268
CAKI-1 = tested on: CAKI-1
NCI-H460 = tested on: NCI-H460
SF-295 = tested on: SF-295
SNB-19 = tested on: SNB-19
CCRF-CEM = tested on: CCRF-CEM
NCI-H23 = tested on: NCI-H23

With `NC1=NS(=O)(=O)Nc2nc(-c3ccc([N+](=O)[O-])o3)[nH]c21` the GI50 (HT-29) was 19.4 µM (inactive), the GI50 (LXFL 529) was 12.7 µM (inactive) and the GI50 (DMS-273) was 21.4 µM (inactive). For the same compound, the GI50 (NCI-H522) was 17.4 µM (inactive), the GI50 (COLO 205) was > 10 µM (inactive) and the GI50 (SK-OV-3) was > 10 µM (inactive). For the same compound, the GI50 (HOP-18) was 16.3 µM (inactive), the GI50 (SN12C) was 17.7 µM (inactive) and the GI50 (HCT-15) was 19.9 µM. For the same compound, the GI50 (KM12) was 18.6 µM (inactive), the GI50 (RXF 393) was 12.9 µM (inactive) and the GI50 (TK-10) was 19 µM (inactive). For the same compound, the GI50 (SF-539) was 17.3 µM (inactive), the GI50 (HL-60) was 1.9 µM (inactive) and the GI50 (RPMI-8226) was 10.7 µM (inactive). For the same compound, the GI50 (LOX IMVI) was 15.9 µM (inactive), the GI50 (A498) was 76.6 µM (inactive) and the GI50 (786-0) was 15.6 µM (inactive). For the same compound, the GI50 (IGROV-1) was 17.2 µM (inactive), the GI50 (U-251) was 16.9 µM (inactive) and the GI50 (DMS-114) was 14.2 µM (inactive). For the same compound, the GI50 (DLD-1) was 15.8 µM (inactive), the GI50 (SK-MEL-28) was 16 µM (inactive) and the GI50 (UO-31) was 16.2 µM (inactive). The GI50 (M19-MEL) was 16.6 µM (inactive), the GI50 (SW-620) was 13.8 µM (inactive) and the GI50 (HOP-92) was 14 µM (inactive). The GI50 (K562) was 5.38 µM (inactive), the GI50 (OVCAR-8) was 25.1 µM (inactive) and the GI50 (UACC-62) was 15.9 µM (inactive). For the same compound, the GI50 (HCC 2998) was 16.8 µM (inactive), the GI50 (OVCAR-3) was 24.7 µM (inactive) and the GI50 (ACHN) was 16.9 µM (inactive). For the same compound, the GI50 (MOLT-4) was 9.62 µM (inactive), the GI50 (OVCAR-5) was 19.4 µM (inactive) and the GI50 (KM-20L2) was 23.1 µM (inactive). The GI50 (Malme-3M) was 16.7 µM (inactive), the GI50 (SR) was 4.73 µM (inactive) and the GI50 (SK-MEL-2) was 16.5 µM (inactive). For the same compound, the GI50 (M14) was 14.9 µM (inactive), the GI50 (OVCAR-4) was 17.1 µM (inactive) and the GI50 (A549) was > 100 µM (inactive). The GI50 (HCT-116) was 4.58 µM (inactive), the GI50 (SNB-75) was 16 µM (inactive) and the GI50 (SK-MEL-5) was 18.3 µM (inactive). For the same compound, the GI50 (HOP-62) was 18.5 µM (inactive), the GI50 (SF-268) was 20 µM (inactive) and the GI50 (CAKI-1) was 21.3 µM (inactive). The GI50 (NCI-H460) was 20.2 µM (inactive), the GI50 (SF-295) was 16.3 µM (inactive) and the GI50 (SNB-19) was 16.7 µM (inactive). The GI50 (CCRF-CEM) was 3.6 µM (inactive) and the GI50 (NCI-H23) was 19.6 µM (inactive).
